test system: Pseudomonas aeruginosa; test: Antibacterial activity against Pseudomonas aeruginosa PAO1 assessed as inhibition of biofilm formation at 10 ug/ml after 24 hrs; format: functional; settings: PAO1, 24 h

**Q.** Which inhibition at 10 µg/mL does the source give for `COc1cc(/C=C/C(=O)O[C@H]2[C@H](O)C[C@]3(C)[C@H]4CC=C5[C@@H]6[C@@H](C)[C@H](C)CC[C@]6(C(=O)O)CC[C@@]5(C)[C@]4(C)CC[C@H]3C2(C)C)ccc1O` here?
**A.** 48%

**Q.** With `C[C@H]1[C@H](C)CC[C@]2(C(=O)O)CC[C@]3(C)C(=CC[C@@H]4[C@@]5(C)C[C@@H](O)[C@H](OC(=O)/C=C/c6ccc(O)cc6)C(C)(C)[C@@H]5CC[C@]43C)[C@H]12` as the compound, how does the inhibition at 10 µg/mL read?
**A.** 35%

**Q.** `C[C@H]1[C@H](C)CC[C@]2(C(=O)O)CC[C@]3(C)C(=CC[C@@H]4[C@@]5(C)C[C@@H](O)[C@H](OC(=O)/C=C\c6ccc(O)cc6)C(C)(C)[C@@H]5CC[C@]43C)[C@H]12` was tested. Which inhibition at 10 µg/mL did it give?
**A.** 32%

**Q.** With `C[C@H]1[C@H](C)CC[C@]2(C(=O)O)CC[C@]3(C)C(=CC[C@@H]4[C@@]5(C)CC[C@H](O)C(C)(C)[C@@H]5CC[C@]43C)[C@H]12` [URSOLIC ACID] as the compound, how does the inhibition at 10 µg/mL read?
**A.** 35%

**Q.** `C[C@@H]1[C@H]2C3=CC[C@@H]4[C@@]5(C)CC[C@H](OC(=O)/C=C\c6ccc(O)cc6)C(C)(C)[C@@H]5CC[C@@]4(C)[C@]3(C)CC[C@@]2(C(=O)O)CC[C@]1(C)O` was tested. Which inhibition at 10 µg/mL did it give?
**A.** 62%

Source: ChEMBL document CHEMBL1157230, “Bacterial biofilm inhibitors from Diospyros dendo” (2006)
